In PMC8949525, “Essential Elements and Isoflavonoids in the Prevention of Prostate Cancer” (Nutrients, 2022):
Where two headings read alike, the source gives them in different places.

How the values were obtained:
[1] = system: LNCaP prostate cancer cells; assay: LNCaP cell proliferation (bisbenzimide H 33258-DNA fluorescence); format: cell-based, human; settings: isoflavone 10 μM, Zn 0.5, Se 0.03, Cu 0.5, Fe 1.5, Ca 40 μg/mL
Protocol: LNCaP cells (passage 12–18) were maintained in DMEM medium supplemented with 10% (v/v) FBS, sodium pyruvate (1 mM), penicillin (100 U/mL) and streptomycin (100 μg/mL) at 37 °C in 5% CO2 humidified atmosphere.
The final concentration of DMSO was 0.05%. It must be noted that DMEM contains 1.8 mM of calcium. […] The cells were then gently washed with 0.9% saline and lysed by brief sonication in deionised water. The cell proliferation was quantified by measurement of bisbenzimide H 33,258–DNA complexes fluorescence on Synergy 4 microplate reader with Gen5 software (BioTek Instruments Inc., 100 Tigan St, Winooski, VT 05404, USA).

[2] = system: S. typhimurium TA1535/pSK1002; settings: for G (growth ratio): −S9, NQO line = genotoxin alone; for anti-genotoxic activity against 4NQO (summary class): cells cover 4NQO […] and 0.05 mg/L, the single + corresponds to […] (Table 2)
Protocol: (§1) The umu-test detects the induction of bacterial DNA-damage response, the SOS system, in the strain S. typhimurium TA1535/pSK1002. The test strain carries pSK1002 plasmid, which contains the fusion of umuC, encoding one of SOS response proteins, and lacZ genes. The expression of β-galactosidase protein is fully controlled by umuC gene.
(§2) In the present study, the umu-test was performed in the micro-plate format according to the ISO guideline. The β-galactosidase activity was determined by the degree of ONPG cleavage measured as sample absorbance at 420 nm. The extent of SOS system activation was presented as induction ratio (IR), calculated as the ratio of β-galactosidase activity in the presence of the tested compound(s) to that of negative control. […] The optical density at 600 nm was used to describe the bacteria growth. […] Both measurements were performed with Asys UVM340 Hightech microplate spectrophotometer.
(§3) In order to the establish anti-genotoxic potential of tested compounds, their effects on the action of two model genotoxic agents, 4NQO without the metabolic activation with rat liver S9 fraction and 2AA with metabolic activation, were evaluated. […] Subsequently, the modulation of 4NQO and 2AA genotoxicity by the isoflavones, the elements and their mixtures in previously used concentrations was investigated.

[3] = system: S. typhimurium TA1535/pSK1002; settings: for decrease in 2AA genotoxicity: range over 2AA 5 mg/L and 1 mg/L
Protocol: as §1, §2
The S9 fraction from rat liver was used for metabolic activation of the tested compounds and the model mutagen. […] The P450 cytochrome level in the isolate was evaluated and the aliquots were stored at −80 °C. The S9 reaction mix was prepared as described by Maron and Ames.
as §3

LNCaP cells = assay: LNCaP viability/apoptosis, Hoechst 33258 fluorescent imaging; format: cell-based, human; settings: 48 h, Hoechst 33258 stain; genistein, Se, Fe; camptothecin 2 µM positive control
Protocol: The images were recorded with the DS-Fi1 camera connected with Eclipse TS100F inverted microscope with Epi-Fluorescent attachment (DAPI filter) and NIS-Elements BR 2.3 software.

[4] = 2AA 1 mg/L, +S9 (second symbol of the cell)
[5] = 2AA 1 mg/L, +S9, daidzein or equol 10 μM with or without mineral (Table 6), 2AA line = genotoxin alone
[6] = 2AA 5 mg/L, +S9 (first symbol of the cell)
[7] = −S9, isoflavone 10 μM, minerals Zn 0.5, Se 0.03, Cu 0.5, Fe 1.5, Ca 40 μg/mL
[8] = 4NQO 0.05 mg/L, genistein 10 μM and/or mineral added (Table 2)
[9] = 4NQO […], genistein 10 μM and/or mineral added (Table 2)
[10] = 2AA 5 mg/L, +S9, genistein 10 μM and/or mineral added (Table 5), 2AA line = genotoxin alone
[11] = 2AA 1 mg/L, +S9, genistein 10 μM and/or mineral added (Table 5), 2AA line = genotoxin alone
[12] = inhibition of IR induced by 2AA 1 mg/L, +S9 (Table 5)
[13] = inhibition of IR induced by 2AA 5 mg/L, +S9 (Table 5)
[14] = 2AA 5 mg/L, +S9, daidzein or equol 10 μM with or without mineral (Table 6), 2AA line = genotoxin alone

SMILES | LNCaP proliferation, % of control ([1]; 24 h incubation) [%] | LNCaP proliferation, % of control ([1]; 48 h incubation) [%] | anti-genotoxic activity against 2AA (summary class) [3, 4] | anti-genotoxic activity against 2AA (summary class) [3, 6] | decrease in 2AA genotoxicity ([3]; +S9) | G (growth ratio) [3, 7] | G (growth ratio) [2, 8] | G (growth ratio) [2, 9] | anti-genotoxic activity against 4NQO (summary class) [2] | G (growth ratio) [3, 10] | G (growth ratio) [3, 11] | %Anti-Genotox. [3, 12] [%] | %Anti-Genotox. [3, 13] [%] | apoptosis / morphology of LNCaP cells (LNCaP cells) | other results
Oc1ccc([C@H]2COc3cc(O)ccc3C2)cc1 [eq, equol] | 81 ± 9 | 60 ± 9 | + (anti-genotoxicty of used compound(s) ≤ 20%) | ++ (anti-genotoxicty of used compound(s) 21–40%) | 29–34% | 1.18 ± 0.33 |  |  |  |  |  |  |  |  | G (growth ratio) ([2]; 4NQO […], daidzein or equol 10 μM with or without mineral (Table 3)): 0.97 ± 0.26; G (growth ratio) [3, 5]: 0.99 ± 0.11; %Anti-Genotox. ([3]; inhibition of IR induced by 2AA 1 mg/L, +S9 (Table 6)): 34%; %Anti-Genotox. ([3]; inhibition of IR induced by 2AA 5 mg/L, +S9 (Table 6)): 29%
[Ca+2].[Cl-].[Cl-] [Ca, calcium chloride] |  | 80 ± 9 |  |  |  | 1.11 ± 0.09 | 1.13 ± 0.08 | 1.11 ± 0.05 | + (anti-genotoxicty of used compound(s) ≤ 20%) | 1.19 ± 0.13 |  |  |  |  | 
O=S(=O)([O-])[O-].[Cu+2] [Cu, copper(II)/cupric sulphate] |  | 80 ± 14 | ++ ++ (anti-genotoxicty of used compound(s) 21–40%) | ++ ++ (anti-genotoxicty of used compound(s) 21–40%) | 26–33% |  | 0.98 ± 0.10 | 1.00 ± 0.12 |  |  | 1.11 ± 0.12 | 33 | 26 |  | 
Nc1ccc2cc3ccccc3cc2c1 [2AA, 2-aminoanthracene, reference compound] |  |  |  |  |  |  |  |  |  | 1.02 ± 0.08 | 1.00 ± 0.07 |  |  |  | G (growth ratio) [3, 5]: 0.92 ± 0.10; IR (induction ratio) [3, 5]: 2.37 ± 0.48; IR (induction ratio) [3, 11]: 2.00 ± 0.53; G (growth ratio) [3, 14]: 0.86 ± 0.09; IR (induction ratio) [3, 14]: 2.91 ± 0.54; IR (induction ratio) [3, 10]: 2.17 ± 0.39
O=S(=O)([O-])[O-].[Zn+2] [Zn, Zinc sulphate] |  | 82 ± 10 |  |  |  |  |  |  |  |  |  |  |  |  | 
O=c1c(-c2ccc(O)cc2)coc2cc(O)ccc12 [dai, daidzein] | 84 ± 10 | 70 ± 7 |  |  |  |  |  |  |  |  |  |  |  |  | 
O=c1c(-c2ccc(O)cc2)coc2cc(O)cc(O)c12 [gen, genistein] | 72 ± 9 | 55 ± 9 | ++ (anti-genotoxicty of used compound(s) 21–40%) | + (anti-genotoxicty of used compound(s) ≤ 20%) | 17–32% | 1.28 ± 0.35 |  | 1.12 ± 0.24 | + (anti-genotoxicty of used compound(s) ≤ 20%) | 1.21 ± 0.17 |  | 32 | 17 | did not induce apoptosis | 
O=S(=O)([O-])[O-].[Fe+2] [Fe, iron(II) sulphate] |  |  | ++ (anti-genotoxicty of used compound(s) 21–40%) | + (anti-genotoxicty of used compound(s) ≤ 20%) | 14–21% |  | 1.10 ± 0.10 |  | + (anti-genotoxicty of used compound(s) ≤ 20%) |  | 1.10 ± 0.06 | 21 | 14 | did not induce apoptosis | G (growth ratio) ([3]; +S9, isoflavone 10 μM, minerals Zn 0.5, Se 0.03, Cu 0.5, Fe 1.5, Ca 40 μg/mL): 0.98 ± 0.10
CC[C@@]1(O)C(=O)OCc2c1cc1n(c2=O)Cc2cc3ccccc3nc2-1 [camptothecin, reference compound] |  |  |  |  |  |  |  |  |  |  |  |  |  | condensed chromatin or apoptotic nuclei | 
O=[Se](=O)([O-])[O-].[Na+].[Na+] [Se, sodium selenate] |  | 84 ± 11 |  |  |  | 1.14 ± 0.11 | 1.10 ± 0.09 | 1.11 ± 0.05 |  | 1.17 ± 0.12 | 1.18 ± 0.10 |  |  | did not induce apoptosis | 
